What all share (test): NCI-60 cell line screen, 48 h
Assay [1] concerns 786-0 renal.
For assay [2], the system named is A549 NSCLC.
The test system of assay [3] is ACHN renal.
The test system of assay [4] is CCRF-CEM leukemia.
For assay [5], the system named is K-562 leukemia.
The subject of assay [6] is NCI-H460 lung.
For assay [7], the system named is SK-OV-3 ovarian.
Assay [8] relates to SR leukemia.
The subject of assay [9] is TK-10 renal.
Assay [10] deals with UACC-257 melanoma.
For assay [11], the system named is UACC-62 melanoma.

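48-hour exposure; five concentrations; linearly interpolated endpoints. Definition used: TGI = concentration required for complete inhibition of growth.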

From PubChem BioAssay (NCI) come the findings set out here.

With `C=C(C)C1CCC2(C)C1CCC1(C)C2CCC2C3(C)C4OC(OC4=O)C(C)(C)C3CCC21C` (stereo not drawn), the TGI in assay [1], in assay [2], in assay [3], in [4], in assay [5] and in [6] was > 100 µM in each case. The TGI in assay [7], in [8], in assay [9], in [10] and in assay [11] was > 100 µM throughout.

Take `O=C(CCCCCCCCC(=O)N1C(=O)CC(=O)N(c2ccc(Cl)cc2)C1=S)N1C(=O)CC(=O)N(c2ccc(Cl)cc2)C1=S`: the TGI is > 100 µM in assay [1]; > 100 µM in [2]; > 100 µM in assay [3]; 87.1 µM in assay [4]; > 100 µM in [5]; > 100 µM in [6]. The TGI in assay [7] is > 100 µM; in assay [8], 83.7 µM; in assay [9] it was > 100 µM; in assay [10], > 100 µM; in assay [11], > 100 µM.

For the molecule `FC(F)(Sc1ncccn1)c1nc2ccccc2o1`, the TGI in [1], in assay [2], in assay [3], in assay [4], in [5] and in assay [6] was > 100 µM in each case. The TGI in assay [7], in [8], in assay [9], in assay [10] and in assay [11] was > 100 µM each time.
